In PubChem BioAssay (NCI):
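At the GI50, growth is halved. TGI: concentration producing complete growth inhibition.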

Legend:
Test in all cases: NCI-60 cell line screen, 384-well format
[1] = system: SK-MEL-5 melanoma
[2] = system: SN12C renal
[3] = system: OVCAR-4 ovarian
[4] = system: NCI-H23 lung
[5] = system: RXF 393 renal
[6] = system: M14 melanoma
[7] = system: COLO 205 colon
[8] = system: SK-MEL-28 melanoma
[9] = system: KM12 colon
[10] = system: SF-539 CNS
[11] = system: NCI/ADR-RES ovarian
[12] = system: MDA-MB-468 breast
[13] = system: CAKI-1 renal
[14] = system: HL-60(TB) leukemia
[15] = system: ACHN renal
[16] = system: CCRF-CEM leukemia
[17] = system: HCC-2998 colon
[18] = system: MOLT-4 leukemia
[19] = system: OVCAR-3 ovarian
[20] = system: MALME-3M melanoma
[21] = system: NCI-H322M lung
[22] = system: EKVX NSCLC
[23] = system: UACC-257 melanoma
[24] = system: UO-31 renal
[25] = system: T-47D breast
[26] = system: IGROV1 ovarian
[27] = system: NCI-H522 lung
[28] = system: HS 578T breast
[29] = system: SNB-19 CNS
[30] = system: RPMI-8226 leukemia
[31] = system: BT-549 breast
[32] = system: SR leukemia
[33] = system: HCT-15 colon
[34] = system: NCI-H460 NSCLC
[35] = system: UACC-62 melanoma
[36] = system: SF-268 CNS
[37] = system: SNB-75 CNS
[38] = system: MDA-MB-435 melanoma

For `CC(=O)N[C@@H]1CCC[C@H](C(=O)Nc2cc(-c3cnn4c3CC(C)(C)C4)c(Cl)cn2)C1`, the GI50 [1] was less than 10 nM, the TGI [1] was less than 10 nM and the GI50 [2] was less than 10 nM. The TGI [2] was 14 nM, the GI50 [3] was less than 10 nM and the TGI [3] was 18.3 nM. The GI50 [4] was less than 10 nM, the TGI [4] was 10.3 nM and the GI50 [5] was less than 10 nM. For the same compound, the TGI [5] was less than 10 nM, the GI50 [6] was less than 10 nM and the TGI [6] was less than 10 nM. For the same compound, the GI50 [7] was less than 10 nM, the TGI [7] was less than 10 nM and the GI50 [8] was less than 10 nM. It also gave a TGI [8] of 11.4 nM, a GI50 [9] of less than 10 nM and a TGI [9] of less than 10 nM. The GI50 [10] was less than 10 nM, the TGI [10] was less than 10 nM and the GI50 [11] was 152 nM. The TGI [11] was 620 nM, the GI50 [12] was less than 10 nM and the TGI [12] was less than 10 nM. The GI50 [13] was less than 10 nM, the TGI [13] was greater than 100000 nM and the GI50 [14] was less than 10 nM. The TGI [14] was less than 10 nM, the GI50 [15] was less than 10 nM and the TGI [15] was greater than 100000 nM. It also gave a GI50 [16] of less than 10 nM, a TGI [16] of less than 10 nM and a GI50 [17] of less than 10 nM. The TGI [17] was 13.9 nM, the GI50 [18] was less than 10 nM and the TGI [18] was less than 10 nM. It also gave a GI50 [19] of less than 10 nM, a TGI [19] of less than 10 nM and a GI50 [20] of less than 10 nM. For the same compound, the TGI [20] was 14.4 nM, the GI50 [21] was less than 10 nM and the TGI [21] was less than 10 nM. For the same compound, the GI50 [22] was less than 10 nM, the TGI [22] was 39.6 nM and the GI50 [23] was less than 10 nM. For the same compound, the TGI [23] was 21.9 nM, the GI50 [24] was 24.5 nM and the TGI [24] was greater than 100000 nM. For the same compound, the GI50 [25] was less than 10 nM, the TGI [25] was greater than 100000 nM and the GI50 [26] was less than 10 nM. For the same compound, the TGI [26] was greater than 100000 nM, the GI50 [27] was 14.8 nM and the TGI [27] was 36 nM. For the same compound, the GI50 [28] was less than 10 nM, the TGI [28] was less than 10 nM and the GI50 [29] was less than 10 nM. For the same compound, the TGI [29] was greater than 100000 nM, the GI50 [30] was less than 10 nM and the TGI [30] was less than 10 nM. For the same compound, the GI50 [31] was less than 10 nM, the TGI [31] was less than 10 nM and the GI50 [32] was less than 10 nM. For the same compound, the TGI [32] was less than 10 nM, the GI50 [33] was less than 10 nM and the TGI [33] was 21800 nM. It also gave a GI50 [34] of less than 10 nM, a TGI [34] of 313 nM and a GI50 [35] of less than 10 nM. For the same compound, the TGI [35] was less than 10 nM, the GI50 [36] was less than 10 nM and the TGI [36] was less than 10 nM. The GI50 [37] was less than 10 nM, the TGI [37] was 26.7 nM and the GI50 [38] was less than 10 nM. For the same compound, the TGI [38] was 44.3 nM.
